The text below walks through data of patent US11993599B2, “Therapeutic compounds” (Genentech, Inc., priority 2021, dated 2024).

One assay deals with BRM (Homo sapiens, UniProt P51531). Nature of the assay: Immunofluorescence assay for BRM degradation in SW1573 cells. It counts as cell-based. To be noted: 20 hours incubation; for DC50: immunofluorescence mean nuclear signal, read-out: BRM IF Degradation IC50; for BRM IF Degradation Sinf (%): normalized to a known degrader control. Also on record: treated overnight at 4° C. with either BRM primary antibody (Cell signaling Cat #11966) or BRG primary antibody; endogenous in cells; host or cells: SW1573. The procedure:
(§1) Example B-2: Immunofluorescence Assay for BRM and BRG1 Degraders
(§2) SW1573 cells were seeded at 3000 cells/well in 384 well plates. The next day, compounds were added using an Echo dispenser. After 20 hours of incubation with compound, cells were fixed with 4% formaldehyde then permeabilized with 0.2% Triton X-100 and blocked with 10% FCS. Fixed and permeabilized cells were treated overnight at 4° C. with either BRM primary antibody (Cell signaling Cat #11966) or BRG primary antibody (Abcam, ab 110641). Finally, cells were treated with fluorescently labeled secondary antibodies for 1 hr (Donkey anti-Rabbit IgG AF488, Life Technologies, A21206) and Hoechst nuclear stain (#H3569) was added for 30 minutes. Cells were washed with PBS in between each step and before imaging on an Opera Phenix microscope (Perkin Elmer). Harmony software (Perking Elmer) was used to quantify the mean nuclear signaling intensity of BRM or BRG signaling per cell in each well. Dose responses were determined from the concentration dependent response of mean nuclear signal intensity with data normalized to a known degrader control. Dose response curves were fit to a floating maximum to allow for calculation of the Dmax.
(§3) Note that, in Table 5, the “Compound Number” corresponds to that used in Table 1. In Table 5, for BRM and BRG1 IF degradation IC50 (μM): A indicates <0.010 μM, B indicates 0.010-0.10 μM, and C indicates >0.10 μM; and for BRM and BRG1 IF degradation Sinf % D indicates 0-−30%, E indicates −30%-−70%, F indicates −71%-−120% and ND indicates the value was not determined.

For the next assay, the target named is T1, BRG1 (Homo sapiens, UniProt P51532).
T1 construct: either BRM primary antibody (Cell signaling Cat #11966) or BRG primary antibody (Abcam, ab 110641); endogenous in cells; host or cells: SW1573
T1 sequence (P51532 whole entry): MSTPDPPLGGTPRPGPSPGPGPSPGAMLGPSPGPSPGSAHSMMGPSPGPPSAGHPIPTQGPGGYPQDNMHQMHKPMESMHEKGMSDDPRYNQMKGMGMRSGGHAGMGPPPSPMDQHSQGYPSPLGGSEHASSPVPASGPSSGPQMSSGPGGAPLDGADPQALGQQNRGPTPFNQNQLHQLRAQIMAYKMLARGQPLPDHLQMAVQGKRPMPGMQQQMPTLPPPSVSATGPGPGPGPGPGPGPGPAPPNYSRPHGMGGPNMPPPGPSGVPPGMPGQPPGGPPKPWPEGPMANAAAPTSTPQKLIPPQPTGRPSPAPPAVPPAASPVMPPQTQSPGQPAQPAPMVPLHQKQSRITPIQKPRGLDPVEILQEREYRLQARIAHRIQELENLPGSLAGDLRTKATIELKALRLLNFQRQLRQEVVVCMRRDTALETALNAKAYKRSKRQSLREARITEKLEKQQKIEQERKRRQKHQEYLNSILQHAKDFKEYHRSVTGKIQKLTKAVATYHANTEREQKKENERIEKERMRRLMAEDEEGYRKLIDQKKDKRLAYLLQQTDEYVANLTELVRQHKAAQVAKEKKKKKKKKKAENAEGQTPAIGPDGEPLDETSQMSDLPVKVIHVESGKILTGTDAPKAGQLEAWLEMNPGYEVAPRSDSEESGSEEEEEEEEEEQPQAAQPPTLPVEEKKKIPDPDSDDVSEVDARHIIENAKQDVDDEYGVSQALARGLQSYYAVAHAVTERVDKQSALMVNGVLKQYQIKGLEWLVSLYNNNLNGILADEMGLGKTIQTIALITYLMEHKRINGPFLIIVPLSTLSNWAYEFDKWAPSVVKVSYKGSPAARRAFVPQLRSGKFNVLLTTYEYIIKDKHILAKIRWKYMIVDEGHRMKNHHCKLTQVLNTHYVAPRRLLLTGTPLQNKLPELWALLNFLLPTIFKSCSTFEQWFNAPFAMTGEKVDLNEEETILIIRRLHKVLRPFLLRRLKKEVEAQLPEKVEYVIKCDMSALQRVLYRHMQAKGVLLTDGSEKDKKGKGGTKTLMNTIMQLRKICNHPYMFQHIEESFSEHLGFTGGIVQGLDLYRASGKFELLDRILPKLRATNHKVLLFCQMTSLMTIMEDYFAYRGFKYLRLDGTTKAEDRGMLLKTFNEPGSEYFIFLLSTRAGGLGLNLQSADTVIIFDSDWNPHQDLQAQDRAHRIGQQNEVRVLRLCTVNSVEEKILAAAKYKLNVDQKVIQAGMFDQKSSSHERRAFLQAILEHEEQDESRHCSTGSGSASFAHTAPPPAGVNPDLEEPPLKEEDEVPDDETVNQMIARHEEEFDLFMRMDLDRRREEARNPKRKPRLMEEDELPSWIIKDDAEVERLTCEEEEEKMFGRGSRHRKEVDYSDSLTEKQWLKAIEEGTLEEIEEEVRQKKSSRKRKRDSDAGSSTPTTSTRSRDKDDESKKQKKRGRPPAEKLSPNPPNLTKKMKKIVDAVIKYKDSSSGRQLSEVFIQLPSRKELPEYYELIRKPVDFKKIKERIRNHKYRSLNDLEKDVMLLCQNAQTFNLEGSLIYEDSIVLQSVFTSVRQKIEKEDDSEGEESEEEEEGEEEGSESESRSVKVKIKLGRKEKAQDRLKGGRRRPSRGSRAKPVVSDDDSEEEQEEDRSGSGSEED
Kind of assay: Immunofluorescence assay for BRG1 degradation in SW1573 cells. It counts as cell-based. Conditions: 20 hours incubation; for DC50: immunofluorescence mean nuclear signal, read-out: BRG1 IF Degradation IC50; for Dmax: SW1573, 20 h, normalized to a known degrader control, read-out: BRG1 IF Degradation Sinf (%). The procedure: as §1, §2, §3

Chain of BRM (P51531 whole entry): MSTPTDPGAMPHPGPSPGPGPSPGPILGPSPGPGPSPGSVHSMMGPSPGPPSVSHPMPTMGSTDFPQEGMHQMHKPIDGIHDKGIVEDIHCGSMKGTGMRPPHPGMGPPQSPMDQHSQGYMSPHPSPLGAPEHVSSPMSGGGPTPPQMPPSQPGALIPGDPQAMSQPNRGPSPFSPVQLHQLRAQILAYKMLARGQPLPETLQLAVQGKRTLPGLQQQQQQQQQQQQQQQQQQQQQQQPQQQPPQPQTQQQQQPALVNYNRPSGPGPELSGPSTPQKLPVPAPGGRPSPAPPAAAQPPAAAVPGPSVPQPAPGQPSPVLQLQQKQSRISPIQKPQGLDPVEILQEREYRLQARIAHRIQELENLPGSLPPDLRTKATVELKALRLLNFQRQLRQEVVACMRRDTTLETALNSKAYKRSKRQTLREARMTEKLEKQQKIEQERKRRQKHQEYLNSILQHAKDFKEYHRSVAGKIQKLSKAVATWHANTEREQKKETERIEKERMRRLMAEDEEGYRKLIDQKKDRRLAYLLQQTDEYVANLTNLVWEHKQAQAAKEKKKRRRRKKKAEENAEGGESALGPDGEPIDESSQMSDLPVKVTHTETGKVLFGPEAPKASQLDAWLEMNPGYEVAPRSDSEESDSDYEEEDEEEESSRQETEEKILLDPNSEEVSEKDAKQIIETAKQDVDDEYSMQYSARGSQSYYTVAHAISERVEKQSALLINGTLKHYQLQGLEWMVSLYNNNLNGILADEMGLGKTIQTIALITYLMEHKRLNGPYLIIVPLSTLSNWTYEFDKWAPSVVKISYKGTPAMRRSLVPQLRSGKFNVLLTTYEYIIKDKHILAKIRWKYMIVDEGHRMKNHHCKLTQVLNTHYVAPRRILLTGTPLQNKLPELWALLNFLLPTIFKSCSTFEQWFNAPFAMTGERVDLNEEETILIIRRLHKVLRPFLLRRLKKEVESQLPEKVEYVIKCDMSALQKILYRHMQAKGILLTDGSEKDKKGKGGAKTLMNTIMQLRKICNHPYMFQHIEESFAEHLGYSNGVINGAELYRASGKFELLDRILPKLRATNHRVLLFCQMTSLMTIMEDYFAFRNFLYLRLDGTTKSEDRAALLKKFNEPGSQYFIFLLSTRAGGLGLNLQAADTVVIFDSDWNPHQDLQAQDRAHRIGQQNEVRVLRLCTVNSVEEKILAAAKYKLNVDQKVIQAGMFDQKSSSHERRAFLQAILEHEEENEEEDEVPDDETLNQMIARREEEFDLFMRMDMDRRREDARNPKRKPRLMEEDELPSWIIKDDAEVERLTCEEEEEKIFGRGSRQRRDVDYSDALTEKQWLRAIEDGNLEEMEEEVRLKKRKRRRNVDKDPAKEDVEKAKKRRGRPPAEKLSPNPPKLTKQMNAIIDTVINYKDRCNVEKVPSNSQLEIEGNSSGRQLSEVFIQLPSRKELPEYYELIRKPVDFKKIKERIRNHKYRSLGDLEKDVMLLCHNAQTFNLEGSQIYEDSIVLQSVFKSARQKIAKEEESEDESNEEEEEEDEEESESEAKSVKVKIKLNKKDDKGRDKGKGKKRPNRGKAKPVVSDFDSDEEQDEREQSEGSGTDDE

As to `Nc1nnc(-c2ccccc2O)cc1N1CC2CCC(C1)N2c1ccnc(C#CCN2CCC[C@H]2CO)c1` [Compound 46, 2-[6-amino-5-[8-[2-[3-[(2S)-2-(hydroxymethyl)pyrrolidin-1-yl]prop-1-ynyl]-4-pyridyl]-3,8-diazabicyclo[3.2.1]octan-3-yl]pyridazin-3-yl]phenol], at BRM, the DC50 is below 10 nM and the “BRM IF Degradation Sinf (%)” value was “E (E indicates −30%-−70%)”. At BRG1, the DC50 fell in the range of 10 to 100 nM and the Dmax is 30 to 70%.
For `CN1CCCN(CC#Cc2cc(N3C4CCC3CN(c3cc(-c5ccccc5O)nnc3N)C4)ccn2)CC1` [Compound 47, 2-[6-amino-5-[8-[2-[3-(4-methyl-1,4-diazepan-1-yl)prop-1-ynyl]-4-pyridyl]-3,8-diazabicyclo[3.2.1]octan-3-yl]pyridazin-3-yl]phenol] the same measures were above 100 nM, “E (E indicates −30%-−70%)”, above 100 nM and 0 to 30%.
The like results for `CC[C@@H]1COCCN1CC#Cc1cc(N2C3CCC2CN(c2cc(-c4ccccc4O)nnc2N)C3)ccn1` [Compound 48, 2-[6-amino-5-[8-[2-[3-[(3R)-3-ethylmorpholin-4-yl]prop-1-ynyl]-4-pyridyl]-3,8-diazabicyclo[3.2.1]octan-3-yl]pyridazin-3-yl]phenol] were, in that order, 10 to 100 nM, “E (E indicates −30%-−70%)”, 10 to 100 nM and 0 to 30%.
For the compound `Nc1nnc(-c2ccccc2O)cc1N1CC2CCC(C1)N2c1ccnc(C#CCN2CC3(CCOCC3)C2)c1` [Compound 49, 2-[6-amino-5-[8-[2-[3-(7-oxa-2-azaspiro[3.5]nonan-2-yl)prop-1-ynyl]-4-pyridyl]-3,8-diazabicyclo[3.2.1]octan-3-yl]pyridazin-3-yl]phenol], on BRM, the DC50 is below 10 nM and the “BRM IF Degradation Sinf (%)” value is on record as “F (F indicates −71%-−120%)”. Further, on BRG1, the DC50 is below 10 nM and the Dmax lay in the range of 30 to 70%.
For the compound `Nc1nnc(-c2ccccc2O)cc1N1CC2CCC(C1)N2c1ccnc(C#CCN2CCCC(O)C2)c1` (stereo not shown) [Compound 50, 1-[3-[4-[3-[3-amino-6-(2-hydroxyphenyl)pyridazin-4-yl]-3,8-diazabicyclo[3.2.1]octan-8-yl]-2-pyridyl]prop-2-ynyl]piperidin-3-ol], at BRM, the DC50 is 10 to 100 nM and the “BRM IF Degradation Sinf (%)” value was “E (E indicates −30%-−70%)”. For the same compound, at BRG1, the DC50 is above 100 nM and the Dmax lay in the range of 30 to 70%.
The like results for `CN(CC#Cc1cc(N2C3CCC2CN(c2cc(-c4ccccc4O)nnc2N)C3)ccn1)C1CCS(=O)(=O)C1` (stereo not shown) [Compound 51, 2-[6-amino-5-[8-[2-[3-[(1,1-dioxothiolan-3-yl)-methyl-amino]prop-1-ynyl]-4-pyridyl]-3,8-diazabicyclo[3.2.1]octan-3-yl]pyridazin-3-yl]phenol] were, in that order, above 100 nM, “E (E indicates −30%-−70%)”, above 100 nM and 30 to 70%.
`Nc1nnc(-c2ccccc2O)cc1N1CC2CCC(C1)N2c1ccnc(C#CCN2CCC(O)C2)c1` (stereo not shown) [Compound 52, 1-[3-[4-[3-[3-amino-6-(2-hydroxyphenyl)pyridazin-4-yl]-3,8-diazabicyclo[3.2.1]octan-8-yl]-2-pyridyl]prop-2-ynyl]pyrrolidin-3-ol]: on BRM, the DC50 lay in the range of 10 to 100 nM and the “BRM IF Degradation Sinf (%)” value is “E (E indicates −30%-−70%)”. In addition, on BRG1, the DC50 is 10 to 100 nM and the Dmax was 30 to 70%.
Regarding `Nc1nnc(-c2ccccc2O)cc1N1CC2CCC(C1)N2c1ccnc(C#CCN2CCn3ccnc3C2)c1` [Compound 53, 2-[6-amino-5-[8-[2-[3-(6,8-dihydro-5H-imidazo[1,2-a]pyrazin-7-yl)prop-1-ynyl]-4-pyridyl]-3,8-diazabicyclo[3.2.1]octan-3-yl]pyridazin-3-yl]phenol], at BRM, the DC50 lay in the range of 10 to 100 nM and the “BRM IF Degradation Sinf (%)” value is “E (E indicates −30%-−70%)”. Further, on BRG1, the DC50 lay in the range of 10 to 100 nM and the Dmax lay within 0 to 30%.
On to `Nc1nnc(-c2ccccc2O)cc1N1CC2CCC(C1)N2c1ccnc(C#CCN2CC3CNCC3C2)c1` (stereo not shown) [Compound 54, 2-[5-[8-[2-[3-(2,3,3a,4,6,6a-hexahydro-1H-pyrrolo[3,4-c]pyrrol-5-yl)prop-1-ynyl]-4-pyridyl]-3,8-diazabicyclo[3.2.1]octan-3-yl]-6-amino-pyridazin-3-yl]phenol], for which, at BRM, the DC50 was above 100 nM and the “BRM IF Degradation Sinf (%)” value was “F (F indicates −71%-−120%)”. For the same compound, on BRG1, the DC50 is above 100 nM and the Dmax fell in the range of 30 to 70%.
For the compound `Nc1nnc(-c2ccccc2O)cc1N1CC2CCC(C1)N2c1ccnc(C#CCN2CCCCC2CO)c1` (stereo not shown) [Compound 55, 2-[6-amino-5-[8-[2-[3-[2-(hydroxymethyl)-1-piperidyl]prop-1-ynyl]-4-pyridyl]-3,8-diazabicyclo[3.2.1]octan-3-yl]pyridazin-3-yl]phenol], on BRM, the DC50 lay in the range of 10 to 100 nM and the “BRM IF Degradation Sinf (%)” value is “E (E indicates −30%-−70%)”. Also, on BRG1, the DC50 fell in the range of 10 to 100 nM and the Dmax fell in the range of 30 to 70%.
As to `Nc1nnc(-c2ccccc2O)cc1N1CC2CCC(C1)N2c1ccnc(C#CCN2Cc3cccnc3C2)c1` [Compound 56, 2-[6-amino-5-[8-[2-[3-(5,7-dihydropyrrolo[3,4-b]pyridin-6-yl)prop-1-ynyl]-4-pyridyl]-3,8-diazabicyclo[3.2.1]octan-3-yl]pyridazin-3-yl]phenol], on BRM, the DC50 fell in the range of 10 to 100 nM and the “BRM IF Degradation Sinf (%)” value is recorded as “E (E indicates −30%-−70%)”. In addition, on BRG1, the DC50 is above 100 nM and the Dmax lay within 0 to 30%.
For `CC1COCCN1CC#Cc1cc(N2C3CCC2CN(c2cc(-c4ccccc4O)nnc2N)C3)ccn1` (stereo not shown) [Compound 57, 2-[6-amino-5-[8-[2-[3-(3-methylmorpholin-4-yl)prop-1-ynyl]-4-pyridyl]-3,8-diazabicyclo[3.2.1]octan-3-yl]pyridazin-3-yl]phenol], the figures for the DC50 at BRM and at BRG1 were 10 to 100 nM and above 100 nM, respectively. Further, the “BRM IF Degradation Sinf (%)” value on BRM was “E (E indicates −30%-−70%)”.
Turning to `Nc1nnc(-c2ccccc2O)cc1N1CC2CCC(C1)N2c1ccnc(C#CCN2CCCCCC2)c1` [Compound 58, 2-(6-amino-5-(8-(2-(3-(azepan-1-yl)prop-1-yn-1-yl)pyridin-4-yl)-3,8-diazabicyclo[3.2.1]octan-3-yl)pyridazin-3-yl)phenol], at BRM, the DC50 was below 10 nM and the “BRM IF Degradation Sinf (%)” value is given as “F (F indicates −71%-−120%)”. Besides, on BRG1, the DC50 is below 10 nM and the Dmax is 30 to 70%.
With `C[C@@H]1CN(CC#Cc2cc(N3C4CCC3CN(c3cc(-c5ccccc5O)nnc3N)C4)ccn2)C[C@H](C)O1` [Compound 59, 2-[6-amino-5-[8-[2-[3-[(2S,6R)-2,6-dimethylmorpholin-4-yl]prop-1-ynyl]-4-pyridyl]-3,8-diazabicyclo[3.2.1]octan-3-yl]pyridazin-3-yl]phenol], at BRM, the DC50 lay in the range of 10 to 100 nM and the “BRM IF Degradation Sinf (%)” value is reported as “E (E indicates −30%-−70%)”. In addition, at BRG1, the DC50 was below 10 nM and the Dmax was in the range of 0 to 30%.
For `Nc1nnc(-c2ccccc2O)cc1N1CC2CCC(C1)N2c1ccnc(C#CCN2C[C@H]3CCCC[C@H]3C2)c1` [Compound 60, 2-[5-[8-[2-[3-[(3aS,7aR)-1,3,3a,4,5,6,7,7a-octahydroisoindol-2-yl]prop-1-ynyl]-4-pyridyl]-3,8-diazabicyclo[3.2.1]octan-3-yl]-6-amino-pyridazin-3-yl]phenol] the same measures were below 10 nM, “E (E indicates −30%-−70%)”, below 10 nM and 30 to 70%.
For `CC1CCCN(CC#Cc2cc(N3C4CCC3CN(c3cc(-c5ccccc5O)nnc3N)C4)ccn2)C1` (stereo not shown) [Compound 61, 2-[6-amino-5-[8-[2-[3-(3-methyl-1-piperidyl)prop-1-ynyl]-4-pyridyl]-3,8-diazabicyclo[3.2.1]octan-3-yl]pyridazin-3-yl]phenol] the same measures were below 10 nM, “E (E indicates −30%-−70%)”, below 10 nM and 30 to 70%.
Consider `CC1(O)CCN(CC#Cc2cc(N3C4CCC3CN(c3cc(-c5ccccc5O)nnc3N)C4)ccn2)C1` (stereo not shown) [Compound 62, 1-[3-[4-[3-[3-amino-6-(2-hydroxyphenyl)pyridazin-4-yl]-3,8-diazabicyclo[3.2.1]octan-8-yl]-2-pyridyl]prop-2-ynyl]-3-methyl-pyrrolidin-3-ol], for which, at BRM, the DC50 is below 10 nM and the “BRM IF Degradation Sinf (%)” value is “E (E indicates −30%-−70%)”. At BRG1, the DC50 was below 10 nM and the Dmax was 30 to 70%.
